According to US10874743B2, “IRAK degraders and uses thereof” (Kymera Therapeutics, Inc., priority 2017, dated 2020):

Target: T1, IRAK4 (Homo sapiens, UniProt Q9NWZ3)
T1 sequence (Q9NWZ3 1-460): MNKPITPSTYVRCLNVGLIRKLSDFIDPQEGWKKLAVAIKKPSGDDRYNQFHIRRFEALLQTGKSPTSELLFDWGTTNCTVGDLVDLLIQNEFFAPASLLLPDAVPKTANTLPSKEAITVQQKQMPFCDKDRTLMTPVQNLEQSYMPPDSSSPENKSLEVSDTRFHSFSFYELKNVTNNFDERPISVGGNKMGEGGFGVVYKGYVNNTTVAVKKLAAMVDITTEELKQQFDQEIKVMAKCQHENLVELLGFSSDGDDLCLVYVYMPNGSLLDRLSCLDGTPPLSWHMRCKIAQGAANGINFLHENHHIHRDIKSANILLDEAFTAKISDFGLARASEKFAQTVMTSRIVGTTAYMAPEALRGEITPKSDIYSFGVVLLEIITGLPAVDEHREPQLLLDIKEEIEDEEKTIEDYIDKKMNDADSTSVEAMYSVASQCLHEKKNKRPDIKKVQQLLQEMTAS
Assay: OCI-LY-10 degradation assay (western blot, % IRAK4 degraded after 4 hours)
Format: cell-based
Set-up: endogenous in cells; host or cells: OCI-LY10
Conditions: OCI-LY10 cells; for OCI-LY10 % IRAK4 Degradation (0.01 uM) / OCI-LY10 % IRAK4 Degradation (0.1 uM) / OCI-LY10 % IRAK4 Degradation (1 uM): 4 hours; for OCI-LY10 % IRAK4 Degradation (0.01 uM): 0.01 uM compound; for OCI-LY10 % IRAK4 Degradation (0.1 uM): 0.1 uM compound; for OCI-LY10 % IRAK4 Degradation (1 uM): 1 uM compound; for OCI-LY10 % IRAK4 Degradation: IRAK4 degraded after 4 hours, western blot
Protocol: Compounds were reconstituted in DMSO to make stock solutions at concentration of 60 mM. THP-1 and OCI-LY10 cells were maintained in RPMI-1640 medium containing 10% FBS, 0.5 μM 2-ME or 20% FBS, 55 μM 2-ME, and 1% L-Glutamine respectively.
Cells were seeded into 6-well plates with 5e6 cells per well. 200 μL of diluted compounds were added to cells to the final concentration of 0.003-10 μM. After 4 or 24 hour-incubation at 37° C., cells were collected into 2 mL Eppendorf tubes and centrifuged at 1,000 rpm for 5 min. The cell pellets were washed with 1×DPBS once and resuspended in 60 μL lysis buffer. The cells were lysed on ice for 10 min, then centrifuged at 14,000 rpm for 10 min at 4° C. and the supernatants were collected for western blots. For THP-1 cells, the lysis buffer contained 40 mM pH 7.4 HEPES, 140 mM NaCl, 2.5 mM EDTA, 1% NP-40, 0.1% SDS, and protease inhibitor cocktail (Roche, Cat. No. 05892791001). For OCI-LY10 cells, RIPAbuffer (Thermo Fisher, 89900) with Halt Protease and Phosphatase Inhibitor Cocktail (Thermo Fisher, 78446) was applied.
The protein concentration of cell lysates was quantified with Pierce™ BCA Protein Assay Kit (Pierce, 23227). Albumin standards at different concentrations were prepared, involving 2,000 ug/mL, 1,500 ug/mL, 1,000 ug/mL, 750 ug/mL, 500 ug/mL, 250 ug/mL, 125 ug/mL, and 25 ug/mL. BCA working reagents were prepared by mixing BCA reagent A with reagent B in 50:1 ratio. 200 μL of the BCA working reagents were added to 25 μL of BCA standard or cell lysates in microplate, and mixed thoroughly on a plate shaker for 30 seconds. After incubation at 37° C. for 30 min, the absorbance of samples at 562 nm were measured with EnVision Plate Reader.
Protein lysates were prepared in NuPAGE™ LDS sample buffer and NuPAGE™ sample reducing agent, and incubated at 95° C. for 5 min. For western blots, 20-25 μg of total proteins were resolved in 4-12% Bis-Tris gels (Introgen, WG1403A) or 10% Bis-Tris Midi gels (Invitrogen, WG1202BOX) running with 1×MOPS SDS running buffer (Invitrogen, NP0001) or 1×MES SDS running buffer (Invitrogen, NP0002). The proteins were transferred to low fluorescence PVDF membranes using the Trans-Blot Turbo Transfer System. Membranes were then blocked in Odyssey blocking buffer at RT for 1 h followed by primary incubation at 4° C. overnight. The primary antibodies were IRAK1 rabbit monoclonal antibody (CST, #4504S, 1:500), IRAK3 rabbit polyclonal antibody (CST, #4369, 1:500), IRAK4 rabbit polyclonal antibody (CST, #4363S, 1:1,000), MyD88 rabbit monoclonal antibody (Abcam, Ab133739, 1:2,000), j3-actin mouse monoclonal antibody (Sigma, A5441, 10,000), and Gapdh mouse monoclonal antibody (Millipore, MAB374, 1:5,000). Membranes were washed three times with 1×TBST, and then incubated with IR Dye 800 CW Goat anti-rabbit (Licor, #926-32211) and IR Dye 700 CW Goat anti-mouse (Licor, #926-68070) secondary antibodies in 1:10,000 dilution at RT for 1 h. The western blot images were obtained using Odyssey Imaging System.
OCI-LY-10 results at 4 hours. The letter codes indicate the percentage of IRAK4 degraded after 4 hours: A (>50% degradation), B (>20-50% degradation) and C (<20% degradation)
OCI-LY-10 results at 4 hours. The letter codes for % IRAK4 degradation indicate the percentage of IRAK4 degraded after 4 hours across three different concentrations: A (>50% degradation), B (>20-50% degradation) and C (<20% degradation).

SMILES | OCI-LY10 % IRAK4 Degradation (0.01 uM) | OCI-LY10 % IRAK4 Degradation (0.1 uM) | OCI-LY10 % IRAK4 Degradation (1 uM) | OCI-LY10 % IRAK4 Degradation
O=C1CCC(N2C(=O)c3cccc(NCCOCCN4CCN(CCOCCNCc5ccc(-n6cc(NC(=O)c7coc(-c8ccnc(NCC9CC9)c8)n7)c(C(F)F)n6)cc5)CC4)c3C2=O)C(=O)N1 (centres unmarked) [I-348] | C (<20% degradation) | C (<20% degradation) | A (>50% degradation) | 
NC(=O)c1nn(-c2ccc(CNCCOCCCc3cccc4c3CN(C3CCC(=O)NC3=O)C4=O)cc2)cc1NC(=O)c1coc(-c2ccnc(NCC(F)(F)F)c2)n1 (centres unmarked) [I-318] | C (<20% degradation) | A (>50% degradation) | B (>20-50% degradation) | 
O=C1CCC(N2C(=O)c3cccc(NCCOCCOCCOCC(F)CNC(=O)c4cnc(Nc5ccc6ncsc6c5)cc4NC4CC4)c3C2=O)C(=O)N1 (centres unmarked) [I-54] |  |  |  | C (<20% degradation)
O=C1CCC(N2C(=O)c3ccc(NCc4cn(CCOCCOCCNCc5ccc(-n6cc(NC(=O)c7coc(-c8ccnc(NCC9CC9)c8)n7)c(C(F)F)n6)cc5)nn4)cc3C2=O)C(=O)N1 (centres unmarked) [I-341] | C (<20% degradation) | A (>50% degradation) | A (>50% degradation) | 
Cc1ncsc1-c1ccc(CNC(=O)[C@@H]2C[C@@H](O)CN2C(=O)[C@@H](NC(=O)COCCOCCOCCOCCOCCNC(=O)C(F)CNC(=O)c2cnc(Nc3ccc4cnccc4n3)cc2NC2CC2)C(C)(C)C)cc1 (some centres unmarked) [I-207] |  |  |  | C (<20% degradation)
N#Cc1cnc2c(cnn2-c2cc(NC3CC3)c(C(=O)NCC(F)COCCOCCNC(=O)COc3cccc4c3C(=O)N(C3CCC(=O)NC3=O)C4=O)cn2)c1 (centres unmarked) [I-95, 6-(5-Cyanopyrazolo[3,4-b]pyridin-1-yl)-4-(cyclopropylamino)-N-[3-[2-[2-[[2-[2-(2,6-dioxo-3-piperidyl)-1,3-dioxo-isoindolin-4-yl]oxyacetyl]amino]ethoxy]ethoxy]-2-fluoro-propyl]pyridine-3-carboxamide] |  |  |  | C (<20% degradation)
O=C1CCC(N2C(=O)c3cccc(NCCOCCOCCOCCOCCNC(=O)c4ccc(-n5cc(NC(=O)c6coc(-c7ccnc(NCC8CC8)c7)n6)c(C(F)F)n5)cc4)c3C2=O)C(=O)N1 (centres unmarked) [I-212] | B (>20-50% degradation) | A (>50% degradation) | A (>50% degradation) | 
NC(=O)c1nn(CC#CC#CCOCCOCCNc2cccc3c2C(=O)N(C2CCC(=O)NC2=O)C3=O)cc1NC(=O)c1coc(-c2ccnc(NCC3CC3)c2)n1 (centres unmarked) [I-434, N-[3-carbamoyl-1-[6-[2-[2-[[2-(2,6-dioxo-3-piperidyl)-1,3-dioxo-isoindolin-4-yl]amino]ethoxy]ethoxy]hexa-2,4-diynyl]pyrazol-4-yl]-2-[2-(cyclopropylmethylamino)-4-pyridyl]oxazole-4-carboxamide] | C (<20% degradation) | C (<20% degradation) | C (<20% degradation) | 
CC(CNc1cccc2c1C(=O)N(C1CCC(=O)NC1=O)C2=O)OCCOCCOCC(F)CNC(=O)c1cnc(Nc2ccc3cnccc3n2)cc1NC1CC1 (centres unmarked) [I-93, 4-(Cyclopropylamino)-N-[3-[2-[2-[2-[[2-(2,6-dioxo-3-piperidyl)-1,3-dioxo-isoindolin-4-yl]amino]-1-methyl-ethoxy]ethoxy]ethoxy]-2-fluoro-propyl]-6-(1,6-naphthyridin-2-ylamino)pyridine-3-carboxamide] |  |  |  | C (<20% degradation)
CN(CCCc1ccc2c(c1)C(=O)N(C1CCC(=O)NC1=O)C2=O)Cc1ccc(-n2cc(NC(=O)c3coc(-c4ccnc(NCC(F)(F)F)c4)n3)c(C(F)F)n2)cc1 (centres unmarked) [I-374] | C (<20% degradation) | B (>20-50% degradation) | B (>20-50% degradation) | 
N#Cc1ccc2ncc(-c3cccc(NC4CCN(CCOCCOCCOCCOCCOCCNc5cccc6c5C(=O)N(C5CCC(=O)NC5=O)C6=O)C4)n3)n2c1 (centres unmarked) [I-208] |  |  |  | C (<20% degradation)
